The values below are quoted from earlier work in paper PMC8235783, “Radiopharmaceutical Formulation and Preclinical Testing of ^68Ga-Labeled DOTA-MGS5 for the Regulatory Approval of a First Exploratory Clinical Trial” (Pharmaceuticals, 2021).

The conditions of this data set: injected dose of 150 MBq; cited from earlier work. On the procedure: When extrapolating the biodistribution data from mice to humans, a whole-body effective dose of 0.0102 mSv/MBq for men and of 0.0131 mSv/MBq for women was calculated. In Table 4, a summary of the calculated organ absorbed doses is given. At a maximum injected activity of 185 MBq, a whole-body radiation dose of 1.9–2.4 mSv can be anticipated for a PET examination with ^68Ga-DOTA-MGS5. The radiation exposure from the radioactive substance is in a similar range of a low-dose CT scan of 3–6 mSv. Due to the potential hazards of ionizing radiation, the dose of the PET/CT scan should be kept a ...

As to `O=C([O-])CN(CCN(CC(=O)[O-])Cc1cc(CCC(=O)NCCCCCC(=O)NCCCC[C@H](NC(=O)N[C@@H](CCC(=O)O)C(=O)O)C(=O)O)ccc1[O-])Cc1cc(CCC(=O)O)ccc1[O-].[68Ga+3].[OH3+]` [^68Ga-PSMA-11], the effective radiation dose is given as 2.4 mSv.
